Laboratory results: patent US6841720B1, “Inducible promoters” (Biogemma UK LTD, priority 1998, dated 2005)
Like-named read-outs stand apart in the source and are kept apart here.

Assays:
[1] = test system: AoPRT-L promoter-GUS fusion; experiment: AoPRT-L promoter-GUS expression in transgenic tobacco (fluorimetric GUS assay); type: in vivo, Nicotiana tabacum (cv Samsun); conditions: for Induction of AoPRT-L promoter-GUS by wound signals: transgenic tobacco, summary statement; for AoPRT-L-promoter-GUS expression after infiltration of pro-oxidant: infiltrated into leaf panels, over the concentration range tested; for Induction of AoPRT-L promoter-GUS fusion: root-fed 3 days, leaf cores; for Time-dependent induction of AoPRT-L promoter-GUS fusion: treatment with 1 mM, time course
Description: The AoPRT-L promoter construct (p22-GUS(INT) Bin 19) was transformed into Nicotiana tabacum (cv Samsun) using standard Agrobacterium tumefaciens-mediated transformation techniques (Draper et al., (1988): Plant Genetic Transformation and Gene Expression—A Laboratory Manual. Blackwell Scientific Publications, Oxford, UK). The expression of the GUS gene driven by the AoPRT-L promoter was analysed using assays described previously (Draper et al., (1988) supra).
Plants were sprayed once, allowed to dry and then sprayed again on the same day (day 0). After 3 or 6 days leaf cores were taken and GUS activity was measured using a standard fluorimetric assay. […] Leaf cores from tobacco harbouring the AoPRT-L promoter fusion with GUS were floated for 3 or 6 days on water containing increasing concentrations of BTH after which time GUS activity in the leaf discs was measured fluorometrically.
Wounding of tobacco leaves (using the hammer method) or infection of tobacco with Pseudomonas syringae pathovar phaseolicola induces local accumulation of the wound-related phytohormone jasmonic acid (JA) (Kenton et al., submitted; Mur et al., (1997) Trends in Microbiol 5:297-300). Leaf cores from tobacco harbouring the AoPRT-L promoter fusion with GUS were floated for 3 days on water containing increasing concentrations of JA after which time GUS activity in the leaf discs was measured using a standard fluorimetric assay. […]
(§1) In order to test whether oxidative stress is likely to induce high levels of AoPRT-L promoter-driven gene expression, H2O2 was infiltrated into leaf panels of transgenic tobacco harbouring the AoPRT-L-promoter-GUS construct (FIG. 13a). […] However, H2O2 has a limited half-life (around 10 mins—Levine et al., (1994) Cell 79: 583-593) in the apoplast, thus the experiment was repeated using a stable peroxide, t-butyl-hydroperoxide (FIG. 13b).

[2] = test system: extracellular aPR-5 proteins; conditions: leaf discs, cited from earlier work
[3] = test system: tobacco leaf tissue; experiment: Visible tissue damage in infiltrated transgenic tobacco leaf panels
Description: as §1

[4] = test system: AoPRT-L mRNA; experiment: AoPRT-L mRNA accumulation in Asparagus (Northern hybridisation); type: in vivo, Asparagus officinalis; conditions: treated Asparagus
From the text: In chopped etiolated A. officinalis seedlings (<=0.5 cm in length) the AoPRT-L transcript was detectable from 3 days after wounding (FIG. 3b).

[5] = test system: AoPRT-L-GUS; experiment: AoPRT-L-GUS expression in transgenic maize; type: in vivo, Zea mays; conditions: treated with SA or BTH
From the text: Maize plants containing AoPRT-L-GUS were produced by biolistic transformation of callus material with pJIT60-P22 GUS int.

[6] = test system: AoPRT-Lx3 promoter-GUS; experiment: pAoPRT-Lx3-GUS expression in transgenic tobacco; type: in vivo, samsun tobacco; conditions: on SA or BTH induction
From the text: In order to construct an AoPRT-L promoter that has higher expression, the region −247 bp to −133 bp was amplified from p22-JIT60 and placed twice in front of a −247 bp AoPRT-L promoter. This AoPRT-Lx3 promoter was constructed as follows: The primers below were used to PCR the 0 bp to −247 bp AoPRT-L promoter from p22-JIT60.
This fragment was cloned as a KpnI, XhoI fragment between the KpnI and SalI sites of the pUC19-derived plasmid forming pAoPRT-Lx2. The −133 bp to −247 bp pAoPRT-L fragment was then cloned as a KpnI, XhoI fragment between the KpnI and SalI sites of pAoPRT-Lx2 forming pAoPRT-Lx3 (FIG. 15c). Next the AoPRT-Lx3 promoter was cloned as an KpnI, PstI fragment into KpnI, PstI-cut p22-JIT60 forming pAoPRT-Lx3-JIT60. The pAoPRT-Lx3 was transferred from pAoPRT-L-x-JIT60 as a KpnI, BamHI fragment into KpnI, BamHI-cut p22-GUS (INT) JIT 60. Finally the resulting pAoPRT-Lx3 -GUS-CaMV poly A chimeric gene was cloned as KpnI, XhoI fragments into KpnI, SalI-cut pBin19 and transformed into samsun tobacco.

[7] = test system: pGB24 (pAoPRT-L-LhG4 / pOP-GUS); experiment: pGB24 amplification construct GUS expression in tobacco; type: in vivo; conditions: on SA or BTH induction
From the text: (§2) A way of increasing the activity of the AoPRT-L promoter whilst retaining tight regulation of the promoter is to use a system that will amplify expression of the AoPRT-L promoter. An amplification system was built using a transactivator (described in WO98/05789 and Moore et al., (1997) Proc. Natl. Acad. Sci. USA. 95, 379-381). The AoPRT-L promoter is linked to a synthetic transactivator (LhG4) and the target promoter of the transactivator (pOP) to the gene to be expressed. LhG4 consists of a mutated E. coli lacI gene fused to the transcriptional activator domain of the GALA from yeast. pOP910 is a minimal 35S CaMV promoter with two binding sites for the LhG4 protein. Since the transactivator can initiate multiple rounds of transcription from pOP, there is amplification of the initial signal that activated the AoPRT-L promoter.
(§3) The amplification system was constructed by the following steps. The pOP910 promoter was excised from pX-910TAG (K. Palme, Max Planck Institut fur Zuchtungsforchung, Koln, Germany) as a SstI-NcoI fragment and cloned into SstI,NcoI-cut pDH68 (pDH68 consists of a Pea Plastocyanin promoter (Pwee and Gray (1993) Plant J. 3, 437-449) linked to an intron GUS gene (D. Twell, Leicester University) cloned between the SstI and EcoRI sites of the vector pJIT30 (Guerineau et al., (1990) Plant Mol. Biol. 15, 127-136)). […]

[8] = test system: pGB24 (pAoPRT-L-LhG4 / pOP-GUS); experiment: pGB24 amplification construct GUS expression in B. napus; type: in vivo, B. napits; conditions: on SA or BTH induction
From the text: as §2, §3

[9] = test system: PR-1a promoter-GUS; conditions: transgenic tobacco, cited from earlier work; for PR-1a promoter-GUS / endogenous PR-1a expression: direct application
[10] = test system: PR gene promoters; conditions: cited from earlier work
[11] = test system: barley homologue of rice thaumatin-like protein; conditions: 1 ppm; cited from earlier work
[12] = test system: barley aPR5; conditions: in vivo; cited from earlier work

C=C [ethylene]
Induction of AoPRT-L promoter-GUS by wound signals [1]: not induced

CC(=O)Oc1ccccc1C(=O)O [aspirin, acetyl-SA]
Induction of extracellular aPR-5 proteins ([2]; 5 mM): induced

CC(C)(C)OO [t-butyl-hydroperoxide]
AoPRT-L-promoter-GUS expression after infiltration of pro-oxidant [1]: no GUS expression was detected
Visible tissue damage after infiltration ([3]; leaf panels, higher concentrations for t-butyl-hydroperoxide): severe visible tissue damage

O=C(O)c1ccccc1O [SA, salicylic acid]
Time after start of treatment at which induction is observable ([1]; 1 mM SA): 1 days
GUS activity of AoPRT-L-GUS plants as fraction of that in pPR-1a-GUS-transformed tobacco ([1]; SA induction): about ⅓
Induction of AoPRT-L promoter-GUS fusion ([1]; 0.1 mM): little induction
Induction of AoPRT-L promoter-GUS fusion ([1]; 1 mM): Substantial induction
Time-dependent induction of AoPRT-L promoter-GUS fusion [1]: clear time-dependent induction
AoPRT-L mRNA accumulation [4]: accumulation was observed
GUS activity of AoPRT-L-GUS maize on treatment [5]: exhibited GUS activity
GUS activity of pAoPRT-Lx3-GUS plants vs equivalent AoPRT-L-GUS plants [6]: significantly greater level of GUS activity
GUS activity of pGB24 plants vs equivalent AoPRT-L-GUS plants [7]: significantly greater level of GUS activity
GUS activity of pGB24 plants vs equivalent AoPRT-L-GUS plants [8]: significantly greater level of GUS activity
PR-1a promoter-GUS / endogenous PR-1a expression [9]: high levels
SA concentration at which PR-1a-GUS is clearly induced [9]: 10 to 100 µM
Induction of expression of PR gene promoters over basal levels ([10]; spraying, injection or root-feeding): 50-1000 fold

O=C(O)COc1ccc(Cl)cc1Cl [2,4 D]
Induction of extracellular aPR-5 proteins ([2]; 10 mM): induced

[Cl-].[Na+] [salt, NaCl]
Induced expression of the AoPRT-L-promoter-GUS construct ('Neither ... induced') ([1]; in vivo): Neither

O=C(O)c1cc(Cl)nc(Cl)c1 [INA, dichloroisonicotinic acid]
PR-1a promoter-GUS / endogenous PR-1a expression [9]: high levels
Expression of barley homologue of rice thaumatin-like protein [11]: induces expression

CC/C=C\C[C@H]1C(=O)CC[C@@H]1CC(=O)O [JA, jasmonic acid]
Induction of AoPRT-L promoter-driven GUS activity in leaf discs ([1]; leaf cores floated 3 days on increasing concentrations, compared with 1 mM SA): failed to induce any increase
Induction of AoPRT-L promoter-GUS by wound signals [1]: not induced
Expression of barley aPR5 [12]: induces expression

OO [H2O2, hydrogen peroxide]
AoPRT-L-promoter-GUS expression after infiltration of pro-oxidant [1]: failed to induce
Visible tissue damage after infiltration ([3]; in vivo): no visible symptoms

CC1=CC(=O)CC(C)(C)[C@@]1(O)/C=C/C(C)=C\C(=O)O [ABA, abscisic acid]
Level of induction relative to that observed using SA ([1]; ABA induction vs SA): an order of magnitude lower
AoPRT-L-promoter-GUS in leaf discs ([1]; high concentration of ABA, leaf discs): slight increase

O=C(O)CC(O)(CC(=O)O)C(=O)O [citric acid]
Induction of extracellular aPR-5 proteins ([2]; 5 mM): induced

O=C(O)Cc1cccc2ccccc12 [NAA]
Induction of extracellular aPR-5 proteins ([2]; 10 mM): induced

O=C(O)c1ccc(O)cc1 [4hBA, 4-hydroxybenzoic acid]
Time-dependent induction of AoPRT-L promoter-GUS fusion [1]: inactive

[Cl][Mn][Cl] [MnCl2]
Induction of extracellular aPR-5 proteins ([2]; 5 mM): induced

CSC(=O)c1cccc2nnsc12 [BTH, benzo(1,2,3)thiadiazole-7-carbothoic acid S-methyl ester]
BTH concentration at which BTH-induced GUS activity is observed ([1]; leaf cores floated 3 or 6 days): 1.25 µM
Induction of AoPRT-L promoter-driven GUS expression by foliar spray ([1]; sprayed twice on day 0, 20 μM BTH vs 1 mM SA, leaf cores after 3 or 6 days): as effective an inducer of GUS expression driven by the AoPRT-L promoter as was SA
GUS activity of AoPRT-L-GUS maize on treatment [5]: exhibited GUS activity
GUS activity of pAoPRT-Lx3-GUS plants vs equivalent AoPRT-L-GUS plants [6]: significantly greater level of GUS activity
GUS activity of pGB24 plants vs equivalent AoPRT-L-GUS plants [7]: significantly greater level of GUS activity
GUS activity of pGB24 plants vs equivalent AoPRT-L-GUS plants [8]: significantly greater level of GUS activity
PR-1a promoter-GUS / endogenous PR-1a expression [9]: high levels
PR gene expression induced by commercial preparations ([10]; all plants tested including arabidopsis and wheat): very strong PR gene expression
Concentration sufficient to induce PR gene expression ([10]; aqueous solution): 1.2 µM
Persistence of gene induction ([10]; spraying): at least 10 days
Time of maximal gene induction after application ([10]; spraying): 2 days

O=C(O)C(=O)O [oxalic acid]
Induction of extracellular aPR-5 proteins ([2]; 5 mM): induced

O=P(O)(O)CCCl [ethephon]
AoPRT-L mRNA accumulation [4]: not induced
Induction of extracellular aPR-5 proteins ([2]; 10 mM): induced

[Cl][Hg][Cl] [HgCl3]
Induction of extracellular aPR-5 proteins ([2]; 5 mM): induced
